The values that follow come from patent US8822517B2, “Arylosulfonamides for the treatment of CNS diseases” (Adamed SP. Z O.O., priority 2010, dated 2014).

The target in assay [1] is dopaminergic D3 receptor (Homo sapiens, UniProt P35462). In words: Binding assay D3 (h), [3H]methyl-spiperone, CHO cells. The arrangement: expressed in transfected cells; host or cells: CHO cells. The conditions noted are these: read-out: D3 [%]. Put shortly: (§1)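 Radioligand displacement with compounds at 1×10^−6 M, detected by scintillation counting. Specific binding taken as total minus non-specific binding measured with excess unlabelled ligand.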

The target in assay [2] is T1, serotonine transporter (SERT) receptor (Homo sapiens, UniProt P31645).
T1 construct: expressed in transfected cells; host or cells: CHO cells
Briefly: Binding assay SERT (h), [3H]imipramine, CHO cells. Particulars: read-out: SERT [%]. Put shortly:
as §1

Assay [3] addresses serotoninergic 5-HT2A receptor (Homo sapiens, UniProt P28223). In words: Binding assay 5-HT2A (h), [3H]ketanserin, HEK-293 cells. The arrangement: expressed in transfected cells; host or cells: HEK-293 cells. Particulars: read-out: 5-HT2A. Put shortly:
as §1

Assay [4] deals with dopaminergic D2 receptor (Homo sapiens, UniProt P14416). Briefly: Binding assay D2S (h), [3H]methyl-spiperone, HEK-293 cells. The arrangement: expressed in transfected cells; host or cells: HEK-293 cells. Particulars: read-out: D2 [%]. Put shortly: as §1
Assay [5] deals with serotoninergic 5-HT7 receptor (Homo sapiens, UniProt P34969). In words: Binding assay 5-HT7 (h), [3H]LSD, CHO cells. The conditions noted are these: read-out: 5-HT7. Details: expressed in transfected cells; host or cells: CHO cells. Put shortly:
as §1

The target of assay [6] is T2, serotoninergic 5-HT1A receptor (Homo sapiens, UniProt P08908).
T2 sequence (P08908 1-422): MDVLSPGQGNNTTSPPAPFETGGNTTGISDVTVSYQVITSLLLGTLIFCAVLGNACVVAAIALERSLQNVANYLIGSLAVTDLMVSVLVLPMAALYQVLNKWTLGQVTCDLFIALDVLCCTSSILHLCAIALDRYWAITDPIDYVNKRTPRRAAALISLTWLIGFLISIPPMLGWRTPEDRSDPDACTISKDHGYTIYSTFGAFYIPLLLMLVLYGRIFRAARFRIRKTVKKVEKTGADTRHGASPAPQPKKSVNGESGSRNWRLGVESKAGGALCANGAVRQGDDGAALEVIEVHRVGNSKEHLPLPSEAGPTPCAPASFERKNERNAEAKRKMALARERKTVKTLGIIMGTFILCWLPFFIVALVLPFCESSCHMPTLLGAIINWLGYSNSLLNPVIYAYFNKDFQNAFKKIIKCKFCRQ
Briefly: Binding assay 5-HT1A (h), [3H]8-OH-DPAT, HEK-293 cells. The arrangement: expressed in transfected cells; host or cells: HEK-293 cells. The conditions noted are these: read-out: 5-HT1A. An outline of the steps: as §1

The subject of assay [7] is adrenergic α1 receptor. In words: Binding assay α1 (non-selective), [3H]prazosin, rat cerebral cortex. Particulars: percent inhibition of control specific binding; compounds tested at 1×10^−6 M. Put shortly: as §1
The target in assay [8] is serotoninergic 5-HT6 receptor (Homo sapiens, UniProt P50406). Briefly: Binding assay 5-HT6 (h), [3H]LSD, CHO cells. The arrangement: expressed in transfected cells; host or cells: CHO cells. The conditions noted are these: read-out: 5-HT6. Put shortly: as §1
Chain of serotoninergic 5-HT6 receptor (P50406 whole entry): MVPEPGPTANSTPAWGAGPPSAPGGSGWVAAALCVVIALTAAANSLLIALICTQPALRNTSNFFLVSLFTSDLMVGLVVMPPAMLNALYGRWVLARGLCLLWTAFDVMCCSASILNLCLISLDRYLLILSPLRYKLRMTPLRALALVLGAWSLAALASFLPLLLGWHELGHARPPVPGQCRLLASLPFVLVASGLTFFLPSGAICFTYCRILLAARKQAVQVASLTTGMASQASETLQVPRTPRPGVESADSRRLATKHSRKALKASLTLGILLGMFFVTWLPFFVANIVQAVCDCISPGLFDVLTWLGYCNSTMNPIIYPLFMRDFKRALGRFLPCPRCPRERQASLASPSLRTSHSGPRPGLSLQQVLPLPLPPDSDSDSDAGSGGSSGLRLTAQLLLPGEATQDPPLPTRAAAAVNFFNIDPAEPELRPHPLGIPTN

Chain of dopaminergic D3 receptor (P35462 whole entry): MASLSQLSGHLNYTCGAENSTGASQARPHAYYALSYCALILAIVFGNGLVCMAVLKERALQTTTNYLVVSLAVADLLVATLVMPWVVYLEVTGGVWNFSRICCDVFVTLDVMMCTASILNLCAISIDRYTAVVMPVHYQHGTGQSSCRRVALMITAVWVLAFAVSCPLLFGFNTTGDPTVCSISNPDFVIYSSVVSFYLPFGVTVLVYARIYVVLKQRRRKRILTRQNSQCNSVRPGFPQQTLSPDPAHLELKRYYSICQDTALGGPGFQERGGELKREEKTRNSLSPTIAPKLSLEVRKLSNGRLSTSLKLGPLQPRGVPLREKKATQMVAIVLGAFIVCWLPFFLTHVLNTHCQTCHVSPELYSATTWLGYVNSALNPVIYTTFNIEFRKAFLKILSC
Chain of serotoninergic 5-HT7 receptor (P34969 whole entry): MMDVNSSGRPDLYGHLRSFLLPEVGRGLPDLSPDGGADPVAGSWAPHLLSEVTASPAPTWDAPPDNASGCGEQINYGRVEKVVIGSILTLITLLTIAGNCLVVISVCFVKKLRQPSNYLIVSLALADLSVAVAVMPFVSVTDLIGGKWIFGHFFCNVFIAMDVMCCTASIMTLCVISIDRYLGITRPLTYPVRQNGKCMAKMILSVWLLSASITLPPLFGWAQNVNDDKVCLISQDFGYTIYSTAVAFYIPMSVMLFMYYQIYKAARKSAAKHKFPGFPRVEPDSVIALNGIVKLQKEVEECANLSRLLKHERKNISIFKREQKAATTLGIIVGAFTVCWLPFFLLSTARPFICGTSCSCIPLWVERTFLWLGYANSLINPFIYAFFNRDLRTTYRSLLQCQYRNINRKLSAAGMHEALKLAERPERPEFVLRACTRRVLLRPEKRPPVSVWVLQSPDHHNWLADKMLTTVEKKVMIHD
Chain of serotoninergic 5-HT2A receptor (P28223 whole entry): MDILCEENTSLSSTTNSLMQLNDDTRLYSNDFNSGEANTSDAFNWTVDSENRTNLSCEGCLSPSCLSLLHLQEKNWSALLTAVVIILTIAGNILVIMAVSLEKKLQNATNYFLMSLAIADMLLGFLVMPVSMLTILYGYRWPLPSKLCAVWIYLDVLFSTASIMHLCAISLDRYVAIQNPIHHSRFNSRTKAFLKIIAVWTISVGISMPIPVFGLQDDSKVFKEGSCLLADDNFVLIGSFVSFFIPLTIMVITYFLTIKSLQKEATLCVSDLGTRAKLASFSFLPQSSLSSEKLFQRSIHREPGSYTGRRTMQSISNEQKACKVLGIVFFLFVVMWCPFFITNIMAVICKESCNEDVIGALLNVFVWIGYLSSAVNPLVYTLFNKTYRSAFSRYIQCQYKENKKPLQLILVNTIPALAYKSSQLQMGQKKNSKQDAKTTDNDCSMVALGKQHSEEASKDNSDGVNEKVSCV
Chain of dopaminergic D2 receptor (P14416 1-414 isoform P14416-2): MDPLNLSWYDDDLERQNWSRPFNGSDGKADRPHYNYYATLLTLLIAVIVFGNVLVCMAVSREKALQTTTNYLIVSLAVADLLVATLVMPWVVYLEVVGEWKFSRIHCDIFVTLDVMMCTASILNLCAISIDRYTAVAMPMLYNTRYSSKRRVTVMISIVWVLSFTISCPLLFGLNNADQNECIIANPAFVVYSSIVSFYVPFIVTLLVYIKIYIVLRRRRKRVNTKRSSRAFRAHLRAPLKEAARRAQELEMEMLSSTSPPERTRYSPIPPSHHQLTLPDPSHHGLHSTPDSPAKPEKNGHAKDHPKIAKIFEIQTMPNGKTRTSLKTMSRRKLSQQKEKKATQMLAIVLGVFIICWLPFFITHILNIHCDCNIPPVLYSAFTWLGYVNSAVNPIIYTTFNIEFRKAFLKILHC
T1 sequence (P31645 whole entry): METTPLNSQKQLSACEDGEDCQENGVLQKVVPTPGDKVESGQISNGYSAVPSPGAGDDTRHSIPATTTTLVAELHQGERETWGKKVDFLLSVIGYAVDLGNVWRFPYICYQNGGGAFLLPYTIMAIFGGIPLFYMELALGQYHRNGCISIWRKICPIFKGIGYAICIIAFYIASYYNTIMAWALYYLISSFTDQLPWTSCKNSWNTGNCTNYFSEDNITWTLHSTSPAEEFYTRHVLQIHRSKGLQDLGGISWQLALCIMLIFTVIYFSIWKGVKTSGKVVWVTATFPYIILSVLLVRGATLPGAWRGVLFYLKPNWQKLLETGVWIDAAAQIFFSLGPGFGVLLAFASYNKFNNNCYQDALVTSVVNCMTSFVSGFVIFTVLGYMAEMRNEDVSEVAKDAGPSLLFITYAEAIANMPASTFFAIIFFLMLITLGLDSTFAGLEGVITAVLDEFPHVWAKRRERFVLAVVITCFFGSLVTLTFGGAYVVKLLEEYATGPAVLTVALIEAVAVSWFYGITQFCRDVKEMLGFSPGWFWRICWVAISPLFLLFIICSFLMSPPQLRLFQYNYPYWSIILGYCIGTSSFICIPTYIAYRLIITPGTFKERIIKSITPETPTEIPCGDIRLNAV

Consider `O=S(=O)(NCCCCN1CCN(c2noc3ccccc23)CC1)c1ccc(Br)cc1` [Compound 274, N-[4-[4-(1,2-Benzoxazol-3-yl)piperazin-1-yl]butyl]-4-bromobenzenesulphonamide], for which the inhibition at 1 µM turned out to be 91% in assay [1]; 30% in assay [2]; 97% in assay [3]; 96% in assay [4]; 83% in assay [5]; 73% in assay [6]. The inhibition at 1 µM in assay [8] is 81%. The “α1 [%]” value in assay [7] was 99%.
With `O=S(=O)(NCCCCN1CCN(c2noc3ccccc23)CC1)c1ccc(F)c(Cl)c1` [Compound 276, N-[4-[4-(1,2-Benzoxazol-3-yl)piperazin-1-yl]butyl]-3-chloro-4-fluorobenzenesulphonamide], the inhibition at 1 µM in assay [1] stood at 69%; in assay [2], 3%; in assay [3], 87%; in assay [4], 95%; in assay [5], 87%; in assay [6], 51%. In addition, the inhibition at 1 µM in assay [8] stood at 78%. For the same compound, the “α1 [%]” value in assay [7] was 95%.
As for `N#Cc1cccc(S(=O)(=O)NCCCCN2CCN(c3noc4ccccc34)CC2)c1` [Compound 282, N-[4-[4-(1,2-Benzoxazol-3-yl)piperazin-1-yl]butyl]-3-cyanobenzenesulphonamide], the inhibition at 1 µM in assay [1] is 87%; in assay [2] it was 12%; in assay [3], 78%; in assay [4], 97%; in assay [5], 98%; in assay [6] it was 50%. The inhibition at 1 µM in assay [8] stood at 64%. For the same compound, the “α1 [%]” value in assay [7] was 102%.
`O=S(=O)(NCCCCN1CCN(c2noc3ccccc23)CC1)c1ccc2c(c1)CCO2` [Compound 289, N-[4-[4-(1,2-Benzoxazol-3-yl)piperazin-1-yl]butyl]-2,3-dihydrobenzofuran-5-sulphonamide]: the inhibition at 1 µM in assay [1] was 79%; in assay [2], 9%; in assay [3], 94%; in assay [4] it was 99%; in assay [5] it was 91%; in assay [6] it was 68%. The inhibition at 1 µM in assay [8] stood at 78%. Further, the “α1 [%]” value in assay [7] is on record as 100%.
Take `O=S(=O)(NCCCCN1CCN(c2noc3ccccc23)CC1)c1ccc2cn[nH]c2c1` [Compound 291, N-[4-[4-(1,2-Benzoxazol-3-yl)piperazin-1-yl]butyl]-1H-indazole-6-sulphonamide]: the inhibition at 1 µM in assay [1] worked out at 85%; in assay [2], 8%; in assay [3], 83%; in assay [4], 99%; in assay [5], 99%; in assay [6], 38%. In assay [8], the inhibition at 1 µM worked out at 83%. Moreover, the “α1 [%]” value in assay [7] was 99%.
Consider `O=S(=O)(NCCCCN1CCN(c2noc3ccccc23)CC1)c1cnc2ccccn12` [Compound 293, N-[4-[4-(1,2-Benzoxazol-3-yl)piperazin-1-yl]butyl]imidazo[1,2-a]pyridine-3-sulphonamide], for which the inhibition at 1 µM in assay [1] was determined as 65%; in assay [2] it was 3%; in assay [3], 89%; in assay [4] it was 85%; in assay [5], 93%; in assay [6], 57%. Also, the inhibition at 1 µM in assay [8] came out at 44%. For the same compound, in assay [7], the “α1 [%]” value is 98%.
Take `O=S(=O)(NCCCCN1CCC(c2noc3cc(F)ccc23)CC1)c1ccc(F)cc1` [Compound 294, 4-Fluoro-N-[4-[4-(6-fluoro-1,2-benzoxazol-3-yl)piperidin-1-yl]butyl]benzenesulphonamide]: the inhibition at 1 µM in assay [1] is 95%; in assay [2], -14%; in assay [3] it was 95%; in assay [4], 105%; in assay [5], 94%; in assay [6], 23%. The inhibition at 1 µM in assay [8] was 72%. For the same compound, the “α1 [%]” value in assay [7] came out at 101%.
Regarding `O=S(=O)(NCCCCN1CCC(c2noc3cc(F)ccc23)CC1)c1ccc(Cl)cc1` [Compound 296, 4-Chloro-N-[4-[4-(6-fluoro-1,2-benzoxazol-3-yl)piperidin-1-yl]butyl]benzenesulphonamide], the inhibition at 1 µM in assay [1] worked out at 100%; in assay [2], 49%; in assay [3], 93%; in assay [4], 105%; in assay [5] it was 91%; in assay [6] it was 34%. Further, the inhibition at 1 µM in assay [8] came out at 83%. In addition, the “α1 [%]” value in assay [7] turned out to be 101%.
As for `O=S(=O)(NCCCCN1CCC(c2noc3cc(F)ccc23)CC1)c1ccc(Cl)c(Cl)c1` [Compound 297, 3,4-Dichloro-N-[4-[4-(6-fluoro-1,2-benzoxazol-3-yl)piperidin-1-yl]butyl]benzenesulphonamide], the inhibition at 1 µM is 100% in assay [1]; 23% in assay [2]; 95% in assay [3]; 93% in assay [4]; 88% in assay [5]; 31% in assay [6]. For the same compound, the inhibition at 1 µM in assay [8] is 87%. For the same compound, in assay [7], the “α1 [%]” value stood at 100%.
Take `O=S(=O)(NCCCCN1CCC(c2noc3cc(F)ccc23)CC1)c1ccc(F)c(Cl)c1` [Compound 299, 3-Chloro-4-fluoro-N-[4-[4-(6-fluoro-1,2-benzoxazol-3-yl)piperidin-1-yl]butyl]benzenesulphonamide]: the inhibition at 1 µM in assay [1] was found to be 98%; in assay [2], 14%; in assay [3], 89%; in assay [4], 87%; in assay [5], 75%; in assay [6] it was 45%. In addition, the inhibition at 1 µM in assay [8] is 84%. In addition, the “α1 [%]” value in assay [7] is listed as 98%.
In the case of `O=S(=O)(NCCCCN1CCC(c2noc3cc(F)ccc23)CC1)c1ccc(C(F)(F)F)cc1` [Compound 302, N-[4-[4-(6-Fluoro-1,2-benzoxazol-3-yl)piperidin-1-yl]butyl]-4-(trifluoromethyl)benzenesulphonamide], the inhibition at 1 µM in assay [1] amounted to 99%; in assay [2], 19%; in assay [3], 95%; in assay [4] it was 90%; in assay [5] it was 101%; in assay [6], 50%. Besides, the inhibition at 1 µM in assay [8] came to 72%. In assay [7], the “α1 [%]” value is given as 100%.
On to `O=S(=O)(NCCCCN1CCC(c2noc3cc(F)ccc23)CC1)c1cccc(C(F)(F)F)c1` [Compound 303, N-[4-[4-(6-Fluoro-1,2-benzoxazol-3-yl)piperidin-1-yl]butyl]-3-(trifluoromethyl)-benzenesulphonamide], for which the inhibition at 1 µM in assay [1] turned out to be 97%; in assay [2], 9%; in assay [3], 96%; in assay [4] it was 108%; in assay [5], 98%; in assay [6], 35%. Also, in assay [8], the inhibition at 1 µM turned out to be 90%. In addition, the “α1 [%]” value in assay [7] came to 97%.
Turning to `O=S(=O)(NCCCCN1CCC(c2noc3cc(F)ccc23)CC1)c1ccc(OC(F)(F)F)cc1` [Compound 304, N-[4-[4-(6-Fluoro-1,2-benzoxazol-3-yl)piperidin-1-yl]butyl]-4-(trifluoromethoxy)-benzenesulphonamide], the inhibition at 1 µM is 87% in assay [1]; 4% in assay [2]; 76% in assay [3]; 94% in assay [4]; 93% in assay [5]; 60% in assay [6]. The inhibition at 1 µM in assay [8] was 78%. The “α1 [%]” value in assay [7] is listed as 101%.
In the case of `N#Cc1ccc(S(=O)(=O)NCCCCN2CCC(c3noc4cc(F)ccc34)CC2)cc1` [Compound 305, 4-Cyano-N-[4-[4-(6-fluoro-1,2-benzoxazol-3-yl)piperidin-1-yl]butyl]benzenesulphonamide], the inhibition at 1 µM is 103% in assay [1]; -18% in assay [2]; 96% in assay [3]; 88% in assay [4]; 85% in assay [5]; 58% in assay [6]. The inhibition at 1 µM in assay [8] turned out to be 78%. Besides, the “α1 [%]” value in assay [7] was found to be 99%.
